For twelve molecules, EC50 results are on record in ChEMBL document CHEMBL3792335, “L-Aspartic and l-glutamic acid ester-based ProTides of anticancer nucleosides: Synthesis and antitumoral evaluation” (Bioorg Med Chem Lett, 2016).

Each structure is given as a SMILES string. pEC50: −log10 of the molar value. Bounds are passed on as bounds.

One test concerns Jurkat. In words: Cytotoxicity against human Jurkat cells assessed as reduction in cell viability after 72 hrs by MTS assay. The test is classed as functional, cell-based. In general terms: Tetrazolium assays rely on reduction of a dye to a coloured formazan, in cell work by metabolically active cells.
Another test has as its system A549. In words: Cytotoxicity against human A549 cells assessed as reduction in cell viability after 72 hrs by MTS assay. The test is classed as functional, cell-based. The settings on record: A549, 72 h.
Test [1] is described as follows: Cytotoxicity against human PC3 cells assessed as reduction in cell viability after 72 hrs by MTS assay. Format: functional, cell-based. The settings on record: PC-3, 72 h.
Another test has as its system Ramos. In words: Cytotoxicity against human Ramos cells assessed as reduction in cell viability after 72 hrs by MTS assay. Format: functional, cell-based.
Test [2] in a line: Cytotoxicity against human U87 cells assessed as reduction in cell viability after 72 hrs by MTS assay. Format: functional, cell-based, U-87MG ATCC. The conditions noted are these: U-87 MG.

`CC(C)CCOC(=O)C[C@H](NP(=O)(OC[C@H]1O[C@@H](n2cc(F)c(=O)[nH]c2=O)C[C@@H]1O)Oc1ccccc1)C(=O)OCCC(C)C` (stereo not given in full): the pEC50 (as a rule, the negative decadic logarithm of the EC50, by convention in mol/L) with Jurkat was 5.96; in the test with A549, 4.36; in test [1] it was 4.64; in the test on Ramos, 6.14; in test [2], 5.00.

For `CC(C)CCOC(=O)CC[C@H](NP(=O)(OC[C@H]1O[C@@H](n2ccc(N)nc2=O)C(F)(F)[C@@H]1O)Oc1ccccc1)C(=O)OCCC(C)C` (stereo not given in full), the negative logarithm of the EC50 (pEC50) in the test with Jurkat is 5.92; in the test on A549, less than 4.00; in test [1] it was 4.96; in the test with Ramos, 5.92; in test [2], less than 4.00.

Consider `O=c1[nH]c(=O)n([C@H]2C[C@H](O)[C@@H](CO)O2)cc1I` [IDOXURIDINE], for which the pEC50 in the test on Jurkat was 4.10; with A549 it was less than 4.00; in test [1], less than 4.00; in the test on Ramos, 4.32; in test [2], less than 4.00.

`CC(C)CCOC(=O)C[C@H](NP(=O)(OC[C@H]1O[C@@H](n2cc(/C=C/Br)c(=O)[nH]c2=O)C[C@@H]1O)Oc1ccccc1)C(=O)OCCC(C)C` (stereo not given in full): the pEC50 in the test on Jurkat was 5.28; in the test on A549, 5.00; in test [1] it was 4.90; in the test on Ramos it was 5.20; in test [2], 4.89.

For `Nc1ccn([C@@H]2O[C@H](CO)[C@@H](O)C2(F)F)c(=O)n1` [GEMCITABINE], the pEC50 with Jurkat is 7.64; in the test on A549, less than 4.00; in test [1], 7.19; in the test on Ramos it was 10.52; in test [2] it was less than 4.00.

In the case of `CC(C)CCOC(=O)C[C@H](NP(=O)(OC[C@H]1O[C@@H](n2cc(I)c(=O)[nH]c2=O)C[C@@H]1O)Oc1ccccc1)C(=O)OCCC(C)C` (stereo not given in full), the negative-log EC50 (pEC50) with Jurkat is 4.83; with A549, 4.57; in test [1], 4.48; in the test on Ramos it was 4.87; in test [2] it was 4.42.

For `CC(C)CCOC(=O)C[C@H](NP(=O)(OC[C@H]1O[C@@H](n2ccc(N)nc2=O)C(F)(F)[C@@H]1O)Oc1ccccc1)C(=O)OCCC(C)C` (stereo not given in full), the pEC50 in the test with Jurkat was 6.53; in the test with A549, less than 4.00; in test [1], 5.46; in the test with Ramos, 6.53; in test [2] it was 4.36.

As for `O=c1[nH]c(=O)n([C@H]2C[C@H](O)[C@@H](CO)O2)cc1/C=C/Br` [BRIVUDINE], the pEC50 (in the test on Jurkat; in the test on A549; in test [1]; with Ramos; in test [2]) was less than 4.00 each time.

Regarding `CCOC(=O)CC[C@H](NP(=O)(OC[C@H]1O[C@@H](n2ccc(N)nc2=O)C(F)(F)[C@@H]1O)Oc1ccccc1)C(=O)OCC` (stereo not given in full), the negative-log EC50 (pEC50) is 6.89 with Jurkat; less than 4.00 with A549; 5.64 in test [1]; 6.44 in the test with Ramos; less than 4.00 in test [2].

For the molecule `CC(C)CCOC(=O)C[C@H](NP(=O)(OC[C@H]1O[C@@H](n2ccc(N)nc2=O)C(F)(F)[C@@H]1O)Oc1ccccc1)C(=O)OCc1ccccc1` (stereo not given in full), the pEC50 in the test on Jurkat is 6.68; in the test with A549 it was less than 4.00; in test [1] it was 5.44; in the test on Ramos, 6.09; in test [2] it was less than 4.00.

With `O=c1[nH]c(=O)n([C@H]2C[C@H](O)[C@@H](CO)O2)cc1F` [FLOXURIDINE], the negative-log EC50 (pEC50) was 8.48 with Jurkat; 4.22 with A549; 4.06 in test [1]; 8.12 with Ramos; 4.74 in test [2].

For the molecule `CC(C)CCOC(=O)[C@H](CC(=O)OCc1ccccc1)NP(=O)(OC[C@H]1O[C@@H](n2ccc(N)nc2=O)C(F)(F)[C@@H]1O)Oc1ccccc1` (stereo not given in full), the pEC50 in the test with Jurkat is 6.68; in the test on A549, less than 4.00; in test [1] it was 5.42; in the test on Ramos, 6.15; in test [2] it was 4.36.
